Measured values: the supplement of paper PMC10307832

Tests used:
Test in all cases: relative viability (nuclei count vs DMSO), 5 days (fraction); higher = more cells survive
BEN = test system: BEN
Outline: (§1)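 Relative viability equals treated-well nuclei counts divided by vehicle-well nuclei counts. Counts came from 4× images of lung cancer cell lines grown in 1536-well plates for 5 days after pin-tool dosing on the day after seeding. Dosing used one drug alone or a fixed anchor-drug dose plus five library-drug doses (not always all listed) in √10 steps, and values are medians of duplicate plates.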

NCI-H650 = test system: NCI-H650
Outline: as §1

NCI-H441 = test system: NCI-H441
Outline: as §1

NCI-H2023 = test system: NCI-H2023
Outline: as §1

NCI-H520 = test system: NCI-H520
Outline: as §1

NCI-H1650 = test system: NCI-H1650
Outline: as §1

201T = test system: 201T
Outline: as §1

ABC-1 = test system: ABC-1
Outline: as §1

NCI-H1915 = test system: NCI-H1915
Outline: as §1

NCI-H661 = test system: NCI-H661
Outline: as §1

NCI-H596 = test system: NCI-H596
Outline: as §1

A-427 = test system: A-427
Outline: as §1

CAL-12T = test system: CAL-12T
Outline: as §1

NCI-H1651 = test system: NCI-H1651
Outline: as §1

NCI-H1944 = test system: NCI-H1944
Outline: as §1

NCI-H460 = test system: NCI-H460
Outline: as §1

PC-3 [JPC-3] = test system: PC-3 [JPC-3]
Outline: as §1

NCI-H727 = test system: NCI-H727
Outline: as §1

LC-2-ad = test system: LC-2-ad
Outline: as §1

LCLC-97TM1 = test system: LCLC-97TM1
Outline: as §1

NCI-H2087 = test system: NCI-H2087
Outline: as §1

H3255 = test system: H3255
Outline: as §1

With Cc1sc2c(c1C)C(c1ccc(Cl)cc1)=N[C@@H](CC(=O)OC(C)(C)C)c1nnc(C)n1-2 [JQ1] + N=C(N)NC(=N)NCCc1ccccc1 [Phenformin] (partner 250 µM) the relative viability (BEN; first compound 0.04 µM) was 0.273, the relative viability (BEN; first compound 0.1265 µM) was 0.296 and the relative viability (BEN; first compound 0.4 µM) was 0.303. It also gave a relative viability (BEN; first compound 1.265 µM) of 0.309, a relative viability (BEN; first compound 4 µM) of 0.215 and a relative viability (NCI-H650; first compound 0.04 µM) of 0.418. It also gave a relative viability (NCI-H650; first compound 0.1265 µM) of 0.358, a relative viability (NCI-H650; first compound 0.4 µM) of 0.313 and a relative viability (NCI-H650; first compound 1.265 µM) of 0.273. It also gave a relative viability (NCI-H650; first compound 4 µM) of 0.25, a relative viability (NCI-H441; first compound 0.04 µM) of 0.728 and a relative viability (NCI-H441; first compound 0.1265 µM) of 0.778. It also gave a relative viability (NCI-H441; first compound 0.4 µM) of 0.681, a relative viability (NCI-H441; first compound 1.265 µM) of 0.388 and a relative viability (NCI-H441; first compound 4 µM) of 0.289. The relative viability (NCI-H2023; first compound 0.04 µM) was 0.399, the relative viability (NCI-H2023; first compound 0.1265 µM) was 0.354 and the relative viability (NCI-H2023; first compound 0.4 µM) was 0.307. The relative viability (NCI-H2023; first compound 1.265 µM) was 0.177, the relative viability (NCI-H2023; first compound 4 µM) was 0.147 and the relative viability (NCI-H520; first compound 0.04 µM) was 0.475. For the same compound, the relative viability (NCI-H520; first compound 0.1265 µM) was 0.614, the relative viability (NCI-H520; first compound 0.4 µM) was 0.544 and the relative viability (NCI-H520; first compound 1.265 µM) was 0.275. It also gave a relative viability (NCI-H520; first compound 4 µM) of 0.321, a relative viability (NCI-H1650; first compound 0.04 µM) of 0.309 and a relative viability (NCI-H1650; first compound 0.1265 µM) of 0.304. It also gave a relative viability (NCI-H1650; first compound 0.4 µM) of 0.182, a relative viability (NCI-H1650; first compound 1.265 µM) of 0.118 and a relative viability (NCI-H1650; first compound 4 µM) of 0.137. It also gave a relative viability (201T; first compound 0.04 µM) of 0.47, a relative viability (201T; first compound 0.1265 µM) of 0.415 and a relative viability (201T; first compound 0.4 µM) of 0.408. It also gave a relative viability (201T; first compound 1.265 µM) of 0.377, a relative viability (201T; first compound 4 µM) of 0.344 and a relative viability (ABC-1; first compound 0.04 µM) of 0.238. It also gave a relative viability (ABC-1; first compound 0.1265 µM) of 0.282, a relative viability (ABC-1; first compound 0.4 µM) of 0.225 and a relative viability (ABC-1; first compound 1.265 µM) of 0.227. It also gave a relative viability (ABC-1; first compound 4 µM) of 0.232, a relative viability (NCI-H1915; first compound 0.04 µM) of 0.347 and a relative viability (NCI-H1915; first compound 0.1265 µM) of 0.334. It also gave a relative viability (NCI-H1915; first compound 0.4 µM) of 0.329, a relative viability (NCI-H1915; first compound 1.265 µM) of 0.212 and a relative viability (NCI-H1915; first compound 4 µM) of 0.177. For the same compound, the relative viability (NCI-H661; first compound 0.04 µM) was 0.264, the relative viability (NCI-H661; first compound 0.1265 µM) was 0.315 and the relative viability (NCI-H661; first compound 0.4 µM) was 0.286. The relative viability (NCI-H661; first compound 1.265 µM) was 0.302, the relative viability (NCI-H661; first compound 4 µM) was 0.282 and the relative viability (NCI-H596; first compound 0.04 µM) was 0.702. The relative viability (NCI-H596; first compound 0.1265 µM) was 0.812, the relative viability (NCI-H596; first compound 0.4 µM) was 0.829 and the relative viability (NCI-H596; first compound 1.265 µM) was 0.374. It also gave a relative viability (NCI-H596; first compound 4 µM) of 0.348, a relative viability (A-427; first compound 0.04 µM) of 0.315 and a relative viability (A-427; first compound 0.1265 µM) of 0.241. It also gave a relative viability (A-427; first compound 0.4 µM) of 0.341, a relative viability (A-427; first compound 1.265 µM) of 0.276 and a relative viability (A-427; first compound 4 µM) of 0.228. The relative viability (CAL-12T; first compound 0.04 µM) was 0.522, the relative viability (CAL-12T; first compound 0.1265 µM) was 0.443 and the relative viability (CAL-12T; first compound 0.4 µM) was 0.42. The relative viability (CAL-12T; first compound 1.265 µM) was 0.253, the relative viability (CAL-12T; first compound 4 µM) was 0.284 and the relative viability (NCI-H1651; first compound 0.04 µM) was 0.265. It also gave a relative viability (NCI-H1651; first compound 0.1265 µM) of 0.249, a relative viability (NCI-H1651; first compound 0.4 µM) of 0.305 and a relative viability (NCI-H1651; first compound 1.265 µM) of 0.245. It also gave a relative viability (NCI-H1651; first compound 4 µM) of 0.241, a relative viability (NCI-H1944; first compound 0.04 µM) of 0.195 and a relative viability (NCI-H1944; first compound 0.1265 µM) of 0.174. It also gave a relative viability (NCI-H1944; first compound 0.4 µM) of 0.191, a relative viability (NCI-H1944; first compound 1.265 µM) of 0.149 and a relative viability (NCI-H1944; first compound 4 µM) of 0.182. It also gave a relative viability (NCI-H460; first compound 0.04 µM) of 0.503, a relative viability (NCI-H460; first compound 0.1265 µM) of 0.271 and a relative viability (NCI-H460; first compound 0.4 µM) of 0.123. The relative viability (NCI-H460; first compound 1.265 µM) was 0.0422, the relative viability (NCI-H460; first compound 4 µM) was 0.041 and the relative viability (PC-3 [JPC-3]; first compound 0.04 µM) was 0.466. For the same compound, the relative viability (PC-3 [JPC-3]; first compound 0.1265 µM) was 0.474, the relative viability (PC-3 [JPC-3]; first compound 0.4 µM) was 0.46 and the relative viability (PC-3 [JPC-3]; first compound 1.265 µM) was 0.461. For the same compound, the relative viability (PC-3 [JPC-3]; first compound 4 µM) was 0.376, the relative viability (NCI-H727; first compound 0.04 µM) was 0.458 and the relative viability (NCI-H727; first compound 0.1265 µM) was 0.282. The relative viability (NCI-H727; first compound 0.4 µM) was 0.368, the relative viability (NCI-H727; first compound 1.265 µM) was 0.393 and the relative viability (NCI-H727; first compound 4 µM) was 0.343. It also gave a relative viability (LC-2-ad; first compound 0.04 µM) of 0.537, a relative viability (LC-2-ad; first compound 0.1265 µM) of 0.468 and a relative viability (LC-2-ad; first compound 0.4 µM) of 0.401. For the same compound, the relative viability (LC-2-ad; first compound 1.265 µM) was 0.222, the relative viability (LC-2-ad; first compound 4 µM) was 0.294 and the relative viability (LCLC-97TM1; first compound 0.04 µM) was 0.423. For the same compound, the relative viability (LCLC-97TM1; first compound 0.1265 µM) was 0.42, the relative viability (LCLC-97TM1; first compound 0.4 µM) was 0.446 and the relative viability (LCLC-97TM1; first compound 1.265 µM) was 0.328. The relative viability (LCLC-97TM1; first compound 4 µM) was 0.203, the relative viability (NCI-H2087; first compound 0.04 µM) was 0.52 and the relative viability (NCI-H2087; first compound 0.1265 µM) was 0.406. It also gave a relative viability (NCI-H2087; first compound 0.4 µM) of 0.406, a relative viability (NCI-H2087; first compound 1.265 µM) of 0.266 and a relative viability (NCI-H2087; first compound 4 µM) of 0.273. For the same compound, the relative viability (H3255; first compound 0.04 µM) was 0.349, the relative viability (H3255; first compound 0.1265 µM) was 0.348 and the relative viability (H3255; first compound 0.4 µM) was 0.35. It also gave a relative viability (H3255; first compound 1.265 µM) of 0.36 and a relative viability (H3255; first compound 4 µM) of 0.36.
